According to patent US20190015484A1, “NICOTINE-DEGRADING ENZYMES FOR TREATING NICOTINE ADDICTION AND NICOTINE POISONING” (priority 2015, published 2019):
Where two headings read alike, the source gives them in different places.

Experiments:
[1] = humans, cited from earlier work
[2] = biological target: neuronal nicotinic acetylcholine receptors (nAChR); conditions: read-out: Ki for nAChr; cited from earlier work
[3] = biological target: neuronal nicotinic acetylcholine receptors (nAChR); conditions: cited from earlier work
Swiss Webster mice = experiment: Toxicity of reaction product to mice; format: in vivo, mouse
Method: Short-term experiments were performed by administrating 35, 70 140 ng of […] to male Swiss Webster mice (about 20 g, n=4 for each group) daily. Their viability and behavior was recorded.
Long-term experiments were performed by administrating 200 ng to the same species of mice (n=7) every other day for 5 weeks. At the end of the 5th week, the mice were euthanized and autopsied.
The clinical utility of an enzyme also relates to the toxicity and addictive properties of the reaction products. […] However, it has been reported as a likely precursor to 4-(methylnitrosamino)-1-(3-pyridyl)-1-butanone (NNK), a potential carcinogen.^20 To investigate any harmful effects of 4, toxicology studies were performed in which mice were administered pseudooxynicotine (4).
Mice received 35, 70 or 140 ng of compound 4 daily, which is representative of the typical range of nicotine amounts (4-72 ng/mL) found in smokers,^19 if fully converted to compound 4. […] In addition, the long-term exposure (5-weeks) of 4 was evaluated where the mice were dosing every other day with 200 ng compound 4 per dose.

Structure (SMILES) | terminal half-life ([1]; regular smoking) [h] | elimination half-life ([1]; tobacco use) [h] | Ki [2] [nM] | EC50 ([3]; read-out: EC50 for activation of nAChr, activation) [nM] | EC50 ([3]; read-out: EC50 for desensitization of nAChr, desensitization) [nM] | health and autopsy, long-term exposure (Swiss Webster mice; mice, 200 ng every other day, 5 weeks) | health and behavior, short-term (Swiss Webster mice; mice, 35, 70 or 140 ng daily, five days)
CN1CCC[C@H]1c1cccnc1 [nicotine, (S)-(−)-nicotine] | ≥ 20 | 2 to 3 | 1 to 12 | 60 | 2.8 | – | –
CNCCCC(=O)c1cccnc1 [compound 4, 4-(methylamino)-1-(pyridine-3-yl)butan-1-one] | – | – | – | – | – | remained healthy and autopsies did not reveal any sign of neoplasia or organ damage | none of the mice exhibited any evidence of health or behavioral problems
